In US9714231B2, “Pyrrolidine GPR40 modulators” (BRISTOL-MYERS SQUIBB COMPANY, priority 2012, dated 2017):
Where a name gives a salt, the structure may show the parent alone.

Target: human GPR40 (Homo sapiens, UniProt O14842)
Experiment: FDSS-based intracellular calcium assay (Human GRP40 in vitro assay)
Assay type: cell-based
Design: 3xFLAG; expressed in transfected cells
Settings: cells expressing GPR40, intracellular Ca2+ response, FDSS reader; read-out: hGPR40 EC50
Description: To conduct the fluorescent imaging plate reader (FLIPR)-based calcium flux assay to measure intracellular Ca^2+ response, cells expressing GPR40 are plated on 384 well plates (BD BIOCOAT® #356697) at a density of 20,000 cells/20 μL medium per well in phenol red and serum-free DMEM (GIBCO® #21063-029) and incubated overnight. Using BD kit #s 80500-310 or -301, the cells are incubated with 20 μL per well of Hank's buffered salt solution with 1.7 mM probenecid and Fluo-3 at 37° C. for 30 min. Compounds are dissolved in DMSO and diluted to desired concentrations with assay buffer and added to the cells as 3× solution (20 μL per well). Run fluorescence/luminescence reader FDSS (Hamamatsu) to read intracellular Ca^2+ response.

human GPR40, sequence (O14842 whole entry): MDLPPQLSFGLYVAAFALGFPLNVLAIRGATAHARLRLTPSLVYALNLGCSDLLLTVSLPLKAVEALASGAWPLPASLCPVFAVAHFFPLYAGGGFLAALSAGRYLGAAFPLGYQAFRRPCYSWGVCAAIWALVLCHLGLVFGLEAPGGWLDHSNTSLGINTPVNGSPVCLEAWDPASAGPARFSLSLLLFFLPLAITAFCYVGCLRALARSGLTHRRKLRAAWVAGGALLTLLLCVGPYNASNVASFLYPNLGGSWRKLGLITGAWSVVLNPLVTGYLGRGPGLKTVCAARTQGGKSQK

EC50 [nM] | Compound
2800 | COc1ccc(F)c(N2CCC(Oc3ccc(N4C[C@H](C(F)(F)F)C[C@@H]4CC(=O)O)cc3)C2)c1 (single isomer, unassigned) [Example 12, Isomer 1, HCl]
5400 | COc1ccc(F)c(N2CCC(Oc3ccc(N4C[C@H](C(F)(F)F)C[C@@H]4CC(=O)O)cc3)C2)c1 (single isomer, unassigned) [Example 12, Isomer 2, HCl]
710 | COc1ccc(F)c(N2CCC(Oc3ccc(N4C[C@H](OC)C[C@@H]4CC(=O)O)cc3)CC2C)c1 (single isomer, unassigned) [Example 13, Isomer 1, HCl]
160 | COc1ccc(F)c(N2CCC(Oc3ccc(N4C[C@H](OC)C[C@@H]4CC(=O)O)cc3)CC2C)c1 (single isomer, unassigned) [Example 13, Isomer 2, HCl]
340 | COc1ccc(F)c(N2CCC(Oc3ccc(N4C[C@H](OC)C[C@@H]4CC(=O)O)cc3)C(C)C2)c1 (single isomer, unassigned) [Example 17, Isomer 1]
64 | COc1ccc(F)c(N2CCC(Oc3ccc(N4C[C@H](OC)C[C@@H]4CC(=O)O)cc3)C(C)C2)c1 (single isomer, unassigned) [Example 17, Isomer 2]
8400 | COc1ccc(F)c(N2CCC(Oc3ccc(N4CC(C(F)(F)F)C(C)C4CC(=O)O)cc3)CC2)c1 (single isomer, unassigned) [Example 26, Isomer 2, 2-((2,3-trans,3,4-trans)-1-(4-((1-(2-Fluoro-5-methoxyphenyl)piperidin-4-yl)oxy)phenyl)-3-methyl-4-(trifluoromethyl)pyrrolidin-2-yl)acetic acid, HCl]
440 | COc1cc(N2CCC(Oc3ccc(N4C[C@H](C(F)(F)F)C[C@@H]4CC(=O)O)cc3)C(C)C2)c(Cl)cn1 (single isomer, unassigned) [Example 27, Isomer 1, HCl]
130 | COc1cc(N2CCC(Oc3ccc(N4C[C@H](C(F)(F)F)C[C@@H]4CC(=O)O)cc3)C(C)C2)c(Cl)cn1 (single isomer, unassigned) [Example 27, Isomer 2, HCl]
330 | COc1cc(N2CCC(Oc3ccc(N4C[C@H](C(F)(F)F)C[C@@H]4CC(=O)O)cc3)C(F)C2)c(Cl)cn1 (single isomer, unassigned) [Example 28, Isomer 1, HCl]
210 | COc1cc(N2CCC(Oc3ccc(N4C[C@H](C(F)(F)F)C[C@@H]4CC(=O)O)cc3)C(F)C2)c(Cl)cn1 (single isomer, unassigned) [Example 28, Isomer 2, HCl]
1900 | CCOc1ccc(F)c(N2CCC(Oc3ccc(N4C[C@H](C(F)(F)F)C[C@@H]4CC(=O)O)cc3)C(CC)C2)c1 (single isomer, unassigned) [Example 33, Isomer 1, HCl]
430 | CCOc1ccc(F)c(N2CCC(Oc3ccc(N4C[C@H](C(F)(F)F)C[C@@H]4CC(=O)O)cc3)C(CC)C2)c1 (single isomer, unassigned) [Example 33, Isomer 2, HCl]
1800 | CCOc1ccc(F)c(N2CCC(Oc3ccc(N4C[C@H](C(F)(F)F)C[C@@H]4CC(=O)O)cc3)C(CC(C)C)C2)c1 (single isomer, unassigned) [Example 35, Isomer 1, HCl]
6000 | CCOc1ccc(F)c(N2CCC(Oc3ccc(N4C[C@H](C(F)(F)F)C[C@@H]4CC(=O)O)cc3)C(Cc3ccccc3)C2)c1 (single isomer, unassigned) [Example 36, Isomer 1, HCl]
740 | CCOc1ccc(F)c(N2CCC(Oc3ccc(N4C[C@H](C(F)(F)F)C[C@@H]4CC(=O)O)cc3)C(Cc3ccccc3)C2)c1 (single isomer, unassigned) [Example 36, Isomer 2, HCl]
500 | CCOc1ccc(F)c(N2CCC(Oc3ccc(N4C[C@H](C(F)(F)F)C[C@@H]4CC(=O)O)cc3)C(C)C2C)c1 (single isomer, unassigned) [Example 44, Isomer 1, HCl]
505 | CCOc1ccc(F)c(N2CCC(Oc3ccc(N4C[C@H](C(F)(F)F)C[C@@H]4CC(=O)O)cc3)C(C)C2C)c1 (single isomer, unassigned) [Example 44, Isomer 2, HCl]
4100 | COc1ccc(F)c(N2CCC(Oc3ccc(N4CCCC4CC(=O)O)cc3)CC2)c1 (single isomer, unassigned) [Example 48, Isomer 1, 2-(1-(4-((1-(2-Fluoro-5-methoxyphenyl)piperidin-4-yl)oxy)phenyl)pyrrolidin-2-yl)acetic acid]
410 | COc1ccc(F)c(N2CCC(Oc3ccc(N4CC(F)(F)C[C@@H]4CC(=O)O)cc3)C(C)C2)c1 (single isomer, unassigned) [Example 53, Isomer 1, HCl]
240 | COc1ccc(C)c(N2CCC(Oc3ccc(N4C[C@H](OC)C[C@@H]4CC(=O)O)cc3)C(C)C2)c1 (single isomer, unassigned) [Example 64, Isomer 1]

EC50 [nM] | Compound
120 | COc1ccc(C)c(N2CCC(Oc3ccc(N4C[C@H](OC)C[C@@H]4CC(=O)O)cc3)C(C)C2)c1 (single isomer, unassigned) [Example 64, Isomer 2]
120 | COc1ccc(C2CCCC2(C)C)c(N2CCC(Oc3ccc(N4C[C@H](OC)C[C@@H]4CC(=O)O)cc3)CC2)c1 (single isomer, unassigned) [Example 65, Isomer 2]
4800 | COc1cc(N2CCC(Oc3ccc(N4C[C@H](OC)C[C@@H]4CC(=O)O)cc3)C(C)C2)c(F)cn1 (single isomer, unassigned) [Example 83, Isomer 1]
370 | COc1cc(N2CCC(Oc3ccc(N4C[C@H](OC)C[C@@H]4CC(=O)O)cc3)C(C)C2)c(F)cn1 (single isomer, unassigned) [Example 83, Isomer 2]
730 | COc1cc(N2CCC(Oc3ccc(N4C[C@H](OC)C[C@@H]4CC(=O)O)cc3)C(C)C2)c(Cl)cn1 (single isomer, unassigned) [Example 84, Isomer 1, TFA]
180 | COc1cc(N2CCC(Oc3ccc(N4C[C@H](OC)C[C@@H]4CC(=O)O)cc3)C(C)C2)c(Cl)cn1 (single isomer, unassigned) [Example 84, Isomer 2, TFA]
410 | COc1cc(N2CCC(Oc3ccc(N4C[C@H](OC)CC4CC(=O)O)c(F)c3F)C(C)C2)c(Cl)cn1 (single isomer, unassigned) [Example 141, Isomer 1]
5600 | COc1cc(N2CCC(Oc3ccc(N4C[C@H](OC)CC4CC(=O)O)c(F)c3F)C(C)C2)c(Cl)cn1 (single isomer, unassigned) [Example 141, Isomer 2]
4700 | COc1cc(N2CCC(Oc3ccc(N4C[C@H](OC)CC4CC(=O)O)c(F)c3F)C(C)C2)c(Cl)cn1 (single isomer, unassigned) [Example 141, Isomer 3]
170 | COc1cc(N2CCC(Oc3ccc(N4C[C@H](OC)[C@@H](F)[C@@H]4CC(=O)O)cc3)C(C)C2)c(Cl)cn1 (single isomer, unassigned) [Example 147, Isomer 1, HCl]
320 | COc1cc(N2CCC(Oc3ccc(N4C[C@H](OC)[C@@H](C)[C@@H]4CC(=O)O)cn3)C(C)C2)c(C2CCCC2(C)C)cn1 (single isomer, unassigned) [Example 150, Isomer 1, HCl]
110 | COc1cc(N2CCC(Oc3ccc(N4C[C@H](OC)[C@@H](C)[C@@H]4CC(=O)O)cn3)C(C)C2)c(C2CCCC2(C)C)cn1 (single isomer, unassigned) [Example 150, Isomer 2, HCl]
140 | COc1cc(N2CCC(Oc3ccc(N4C[C@H](OC)[C@@H](C)[C@@H]4CC(=O)O)cn3)CC2)c(C2CCCC2(C)C)cn1 (single isomer, unassigned) [Example 151, Isomer 2, HCl]
3500 | COc1cc(N2CCC(Oc3ccc(N4C[C@H](OC)[C@@H](C)[C@@H]4CC(=O)O)cc3)C(C)C2)c(F)cc1F (single isomer, unassigned) [Example 169, Isomer 1]
450 | COc1cc(N2CCC(Oc3ccc(N4C[C@H](OC)[C@@H](C)[C@@H]4CC(=O)O)cc3)C(C)C2)c(F)cc1F (single isomer, unassigned) [Example 169, Isomer 2]
1800 | COCC1CN(c2cc(OC)ncc2Cl)CCC1Oc1ccc(N2C[C@H](C(F)(F)F)C[C@@H]2CC(=O)O)cc1 (single isomer, unassigned) [Example 172, Isomer 1, TFA]
460 | COCC1CN(c2cc(OC)ncc2Cl)CCC1Oc1ccc(N2C[C@H](C(F)(F)F)C[C@@H]2CC(=O)O)cc1 (single isomer, unassigned) [Example 172, Isomer 2, TFA]
120 | CCO[C@@H]1C[C@H](CC(=O)O)N(c2ccc(OC3CCN(c4cc(OC)ccc4F)CC3)cc2)C1 [Example 2, 2-((2R,4R)-4-Ethoxy-1-(4-((1-(2-fluoro-5-methoxyphenyl)piperidin-4-yl)oxy)phenyl)pyrrolidin-2-yl)acetic acid, HCl]
210 | COc1ccc(F)c(N2CCC(Oc3ccc(N4C[C@H](c5ccccc5)C[C@@H]4CC(=O)O)cc3)CC2)c1 [Example 3, 2-((2R,4S)-1-(4-((1-(2-Fluoro-5-methoxyphenyl)piperidin-4-yl)oxy)phenyl)-4-phenylpyrrolidin-2-yl)acetic acid, HCl]
66 | COc1ccc(F)c(N2CCC(Oc3ccc(N4CC(F)(F)C[C@@H]4CC(=O)O)cc3)CC2)c1 [Example 5, (S)-2-(4,4-Difluoro-1-(4-((1-(2-fluoro-5-methoxyphenyl)piperidin-4-yl)oxy)phenyl)pyrrolidin-2-yl)acetic acid, TFA]
